Reference: patent publication US20240294498A1, “FACTOR XIIA INHIBITORS” (Lunac Therapeutics Ltd, priority 2021, published 2024)

Experiments:
Type in all cases: biochemical
[1] = target: T1, FXIIa (Homo sapiens, UniProt P00748); test: Determination of Factor XIIa inhibition (chromogenic substrate S-2302); conditions: human FXIIa alpha, Ki category
T1 construct: FXIIa alpha
T1 sequence (P00748 373-615 limits assumed): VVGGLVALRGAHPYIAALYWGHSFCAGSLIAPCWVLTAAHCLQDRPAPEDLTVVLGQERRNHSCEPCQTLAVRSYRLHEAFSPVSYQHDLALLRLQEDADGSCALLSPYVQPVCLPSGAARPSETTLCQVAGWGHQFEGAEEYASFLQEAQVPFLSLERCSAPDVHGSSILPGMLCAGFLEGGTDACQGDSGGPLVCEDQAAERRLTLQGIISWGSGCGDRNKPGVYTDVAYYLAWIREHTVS
T1 sequence (P00748 20-372 partner limits assumed): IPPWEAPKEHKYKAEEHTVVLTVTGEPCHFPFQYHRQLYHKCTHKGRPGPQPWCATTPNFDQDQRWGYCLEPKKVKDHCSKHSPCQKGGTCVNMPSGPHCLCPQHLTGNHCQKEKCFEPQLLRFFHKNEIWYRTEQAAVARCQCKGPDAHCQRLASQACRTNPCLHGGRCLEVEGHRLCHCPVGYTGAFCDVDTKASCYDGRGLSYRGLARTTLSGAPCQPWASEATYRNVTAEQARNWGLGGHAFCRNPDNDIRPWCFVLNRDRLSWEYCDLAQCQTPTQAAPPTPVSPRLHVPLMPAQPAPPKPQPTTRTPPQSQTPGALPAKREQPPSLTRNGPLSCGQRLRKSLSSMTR
Description: (§1) The activities of the compounds of the invention have been determined in vitro using the following assays protocols for the screening of activity of FXIIa and other proteases. Each of these assays were performed in a purified system employing the use of chromogenic assays in microplate plate wells. Chromogenic peptide substrates mimicking natural protein substrates are attached via an amide bond to a chromogenic group. Paranitroaniline (pNA) is released from the peptide following catalyses by the proteolytic enzyme; the absorbance increases and can be monitored at 405 nm.
(§2) All compounds were dissolved in 100% (v/v) DMSO to a stock concentration of 10 mM, the highest concentration of compound used in each assay is 500 μM. The final concentrations of DMSO were 5% (v/v) in 50 mM Tris 137 mM NaCl pH 7.4. Where no test compound was added a final concentration of 5% DMSO was employed.
Factor XIIa activity was measured using a chromogenic substrate S-2302 (Chromogenix). Various concentrations of compound were incubated with 10 nM of FXIIa and incubated at 37° C. for 10 minutes in 50 mM Tris, 137 mM NaCl, pH 7.4, prior to the addition of the chromogenic substrate S-2302 at a concentration equal the to the experimentally derived KM. Kinetic readings at 405 nm were monitored every 12 secs for a total duration of 3 hours at 37° C. Gradients of initial rates were determined and employed to calculate IC50 values.
The activity of the compounds of the invention has been categorised based on the Ki values, the categories being “†”, “*”, “**” and “***”. […] The category “**” refers to compounds with a Ki value of 0.2 μM to 0.8 μM.
(§3) Ki═IC50/(1+[Substrate]/Km)
(§4) Where [Substrate] denotes the concentration of substrate used in the assay and Km is the determined value of each enzyme with its own substrate.

[2] = target: FXa (Homo sapiens, UniProt P00742); test: Determination of selectivity: FXa inhibition (chromogenic substrate S2765); conditions: fold selectivity for FXIIa over FXa (human); category
Chain of FXa (P00742 235-488 limits assumed): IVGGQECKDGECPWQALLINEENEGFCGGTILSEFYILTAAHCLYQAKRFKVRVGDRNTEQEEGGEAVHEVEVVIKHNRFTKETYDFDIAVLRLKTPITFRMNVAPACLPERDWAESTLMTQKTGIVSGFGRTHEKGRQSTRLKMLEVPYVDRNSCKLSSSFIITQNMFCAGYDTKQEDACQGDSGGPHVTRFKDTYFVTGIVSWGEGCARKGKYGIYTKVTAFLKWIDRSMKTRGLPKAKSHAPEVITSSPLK
Chain of FXa (P00742 41-179 partner limits assumed): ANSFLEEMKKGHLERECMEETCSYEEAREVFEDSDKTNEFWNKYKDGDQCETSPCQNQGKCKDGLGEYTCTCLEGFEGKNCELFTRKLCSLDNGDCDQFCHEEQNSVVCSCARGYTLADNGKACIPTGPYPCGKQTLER
Description: as §1, §2
(§5) To determine selectivity of test compounds, these test compounds were assayed for inhibitory activity against other serine proteases including FXa and thrombin. Essentially compounds at increasing concentrations were incubated with each enzyme: FXa (5 nM) and thrombin (5 nM), for 10 mins at 37° C. followed by the appropriate chromogenic substrate, S2765 (Chromogenix) and GPR (Bachem) respectively in 50 mM Tris, 137 mM NaCl, pH 7.4. Substrates were used at a concentration equal to the appropriate experimentally derived KM. Kinetic readings at 405 nm were monitored every 12 secs for a total duration of 3 hours at 37° C. Gradients of initial rates were determined and employed to calculate IC50 values. Values of IC50 were converted to Ki values based on the formula:
as §3, §4
The fold selectivity for FXIIa over FXa for the compounds of the invention has been categorised based on the fold selectivity values, the categories being “o”, “oo” and “ooo”. The category “o” refers to fold selectivity values less than 10 (e.g. a fold selectivity value of less than 10 and greater than 1). The category “oo” refers to a fold selectivity value of 10 to 100. The category “ooo” refers to fold selectivity values greater than 100.

[3] = target: T2, thrombin (Homo sapiens, UniProt P00734); test: Determination of selectivity: thrombin inhibition (chromogenic substrate GPR); conditions: fold selectivity for FXIIa over thrombin (human); category
T2 construct: FXa (5 nM) and thrombin (5 nM)
Description: as §1, §2, §5, §3, §4
The fold selectivity for FXIIa over thrombin for the compounds of the invention has been categorised based on the fold selectivity values, the categories being “+”, “++” and “+++”. The category “+” refers to fold selectivity values less than 10 (e.g. a fold selectivity value of less than 10 and greater than 1). The category “++” refers to a fold selectivity value of 10 to 100. The category “+++” refers to fold selectivity values greater than 100.

`Cc1ccc(C=C2C[C@@H](C(=O)NCc3ccc4c(cnn4C)c3)N(C(=O)[C@@H]3NCCC[C@@H]3C(=O)N3CCCC3)C2)cc1` (single isomer, unassigned) [Example M05843] was tested, and the Ki [1] was 200 to 800 nM, the “FXa (human)/FXIIa alpha (human)” value [2] was “∘∘∘” and the “Thrombin (human)/FXIIa alpha (human)” value [3] was “+++ (fold selectivity values greater than 100)”.
With `Cc1ccc(C[C@@H]2C[C@@H](C(=O)NCC3CCc4c(cnn4C)C3)N(C(=O)[C@@H]3NCCC[C@@H]3C(=O)N3CCCC3)C2)cc1` (stereo partly drawn) [Example M05874, (2S,4R)-N-((1-methyl-4,5,6,7-tetrahydro-1H-indazol-5-yl)methyl)-4-(4-methylbenzyl)-1-((2R,3S)-3-(pyrrolidine-1-carbonyl)piperidine-2-carbonyl)pyrrolidine-2-carboxamide] the Ki [1] was 200 to 800 nM, the “FXa (human)/FXIIa alpha (human)” value [2] was “∘∘∘” and the “Thrombin (human)/FXIIa alpha (human)” value [3] was “+++ (fold selectivity values greater than 100)”.
With `Cn1ncc2cc(CNC(=O)[C@@H]3C[C@@H](Cc4ccccc4C(F)(F)F)CN3C(=O)[C@@H]3NCCC[C@@H]3C(=O)N3CCCC3)ccc21` [Example M05809, (2S,4R)-N-((1-methyl-1H-indazol-5-yl)methyl)-1-((2R,3S)-3-(pyrrolidine-1-carbonyl)piperidine-2-carbonyl)-4-(2-(trifluoromethyl)benzyl)pyrrolidine-2-carboxamide] the Ki [1] was 200 to 800 nM, the “FXa (human)/FXIIa alpha (human)” value [2] was “∘∘∘” and the “Thrombin (human)/FXIIa alpha (human)” value [3] was “+++ (fold selectivity values greater than 100)”.
With `Cc1ccc(C[C@@H]2C[C@@H](C(=O)NCc3ccc4c(cnn4C)c3)N(C(=O)[C@H]3[C@@H](C(=O)N4CCCC4)CCCN3C)C2)cc1` [Example M05757, (2S,4R)—N-[(1-methylindazol-5-yl)methyl]-1-[(2R,3S)-1-methyl-3-(pyrrolidine-1-carbonyl)piperidine-2-carbonyl]-4-(p-tolylmethyl)pyrrolidine-2-carboxamide] the Ki [1] was less than 200 nM, the “FXa (human)/FXIIa alpha (human)” value [2] was “∘∘∘” and the “Thrombin (human)/FXIIa alpha (human)” value [3] was “+++ (fold selectivity values greater than 100)”.
`Cc1ccc(C[C@@H]2C[C@@H](C(=O)NCc3ccc4c(cnn4C)c3)N(C(=O)[C@@H]3NCCC[C@@H]3C(=O)N(C)CCN(C)C3CC3)C2)cc1` [Example M06049, (2R,3S)-N-[2-[cyclopropyl(methyl)amino]ethyl]N-methyl-2-[(2S,4R)-2-[(1-methylindazol-5-yl)methylcarbamoyl]-4-(p-tolylmethyl)pyrrolidine-1-carbonyl]piperidine-3-carboxamide] was tested, and the Ki [1] was less than 200 nM, the “FXa (human)/FXIIa alpha (human)” value [2] was “∘∘∘” and the “Thrombin (human)/FXIIa alpha (human)” value [3] was “+++ (fold selectivity values greater than 100)”.
In the case of `COc1nn(C)c2ccc(CNC(=O)[C@@H]3C[C@@H](Cc4ccc(C)cc4)CN3C(=O)[C@@H]3NCCC[C@@H]3C(=O)N3CCCC3)cc12` [Example M05810, (2S,4R)-N-((3-methoxy-1-methyl-1H-indazol-5-yl)methyl)-4-(4-methylbenzyl)-1-((2R,3S)-3-(pyrrolidine-1-carbonyl)piperidine-2-carbonyl)pyrrolidine-2-carboxamide], the Ki [1] is reported as 800 to 5000 nM, the “FXa (human)/FXIIa alpha (human)” value [2] is reported as “∘∘” and the “Thrombin (human)/FXIIa alpha (human)” value [3] is reported as “++ (a fold selectivity value of 10 to 100)”.
For `Cn1ncc2cc(CNC(=O)[C@@H]3C[C@@H](Cc4cccc(C(F)(F)F)c4)CN3C(=O)[C@@H]3NCCC[C@@H]3C(=O)N3CCCC3)ccc21` [Example M05836, (2S,4R)-N-((1-methyl-1H-indazol-5-yl)methyl)-1-((2R,3S)-3-(pyrrolidine-1-carbonyl)piperidine-2-carbonyl)-4-(3-(trifluoromethyl)benzyl)pyrrolidine-2-carboxamide], the Ki [1] was 800 to 5000 nM, the “FXa (human)/FXIIa alpha (human)” value [2] was “∘∘∘” and the “Thrombin (human)/FXIIa alpha (human)” value [3] was “+++ (fold selectivity values greater than 100)”.
With `Cc1ccc(C[C@@H]2C[C@@H](C(=O)NCc3ccc4c(cnn4C)c3)N(C(=O)[C@@H]3NCCC[C@@H]3C(=O)N3CC[C@H](N(C)C)C3)C2)cc1` [Example M06013, (2S,4R)-1-((2R,3S)-3-((S)-3-(dimethylamino)pyrrolidine-1-carbonyl)piperidine-2-carbonyl)-N-((1-methyl-1H-indazol-5-yl)methyl)-4-(4-methylbenzyl)pyrrolidine-2-carboxamide] the Ki [1] was less than 200 nM, the “FXa (human)/FXIIa alpha (human)” value [2] was “∘∘∘” and the “Thrombin (human)/FXIIa alpha (human)” value [3] was “+++ (fold selectivity values greater than 100)”.
In the case of `Cc1ccc(C[C@@H]2C[C@@H](C(=O)NCc3ccc4c(cnn4C(F)F)c3)N(C(=O)[C@@H]3NCCC[C@@H]3C(=O)N3CCCC3)C2)cc1` [Example M05778, (2S,4R)-N-((1-(difluoromethyl)-1H-indazol-5-yl)methyl)-4-(4-methylbenzyl)-1-((2R,3S)-3-(pyrrolidine-1-carbonyl)piperidine-2-carbonyl)pyrrolidine-2-carboxamide], the Ki [1] is reported as 200 to 800 nM, the “FXa (human)/FXIIa alpha (human)” value [2] is reported as “∘∘∘” and the “Thrombin (human)/FXIIa alpha (human)” value [3] is reported as “+++ (fold selectivity values greater than 100)”.
`Cc1ccc(C[C@@H]2C[C@@H](C(=O)NCc3ccc4c(cnn4C)c3)N(C(=O)[C@@H]3NCCC[C@@H]3C(=O)N(C)CCN3CC[C@H](F)C3)C2)cc1` [Example M06109, (2R,3S)-N-(2-((S)-3-fluoropyrrolidin-1-yl)ethyl)-N-methyl-2-((2S,4R)-2-(((1-methyl-1H-indazol-5-yl)methyl)carbamoyl)-4-(4-methylbenzyl)pyrrolidine-1-carbonyl)piperidine-3-carboxamide] was tested, and the Ki [1] was less than 200 nM, the “FXa (human)/FXIIa alpha (human)” value [2] was “∘∘∘” and the “Thrombin (human)/FXIIa alpha (human)” value [3] was “+++ (fold selectivity values greater than 100)”.
For `Cc1ccc(C[C@@H]2C[C@@H](C(=O)NCc3ccc4c(cnn4C)c3)N(C(=O)[C@@H]3NCCC[C@@H]3C(=O)N(CCN(C)C)C3CC3)C2)cc1` [Example M06048, (2R,3S)-N-cyclopropyl-N-(2-(dimethylamino)ethyl)-2-((2S,4R)-2-(((1-methyl-1H-indazol-5-yl)methyl)carbamoyl)-4-(4-methylbenzyl)pyrrolidine-1-carbonyl)piperidine-3-carboxamide], the Ki [1] was less than 200 nM, the “FXa (human)/FXIIa alpha (human)” value [2] was “∘∘∘” and the “Thrombin (human)/FXIIa alpha (human)” value [3] was “+++ (fold selectivity values greater than 100)”.
For `Cc1ccc(C[C@@H]2C[C@@H](C(=O)NCc3ccc4c(cnn4C)c3)N(C(=O)[C@@H]3NCCC[C@@H]3C(=O)N(C)CCN3CC(F)C3)C2)cc1` [Example M06099, (2R,3S)-N-(2-(3-fluoroazetidin-1-yl)ethyl)-N-methyl-2-((2S,4R)-2-(((1-methyl-1H-indazol-5-yl)methyl)carbamoyl)-4-(4-methylbenzyl)pyrrolidine-1-carbonyl)piperidine-3-carboxamide], the Ki [1] was less than 200 nM, the “FXa (human)/FXIIa alpha (human)” value [2] was “∘∘∘” and the “Thrombin (human)/FXIIa alpha (human)” value [3] was “+++ (fold selectivity values greater than 100)”.
